The source of these data is publication PMC10046377, “Inhibitors of the Oncogenic PA2G4-MYCN Protein-Protein Interface” (Cancers, 2023).

SMILES strings stand for the structures.

The test system of one experiment is neuroblastoma cells. The experiment in a line: Annexin V/7-AAD flow cytometry apoptosis assay. Format: cell-based, human. The note with it: 48 h treatment. On the procedure:
Neuroblastoma cell lines were seeded 24 h before treating with #5333 or #5338 for 48 h. The apoptotic and necrotic effects of the #5333 and #5338 treatment were determined by staining the cells with Annexin V PE/7-AAD using the Annexin V: PE Apoptosis Detection Kit (BD Biosciences, North Ryde, NSW, Australia), according to the manufacturer’s instruction. Stained cells were measured by flow cytometry using the BD LSRFortessa (BD Biosciences, NSW, Australia) and the data was analysed using the FlowJo software.
To determine if the drug effects led to apoptosis, we stained cells with annexin-V/7-AAD, a marker of early and late apoptotic events (Figure 2D). […] To confirm the apoptotic status of the cells, protein expression of key apoptotic markers PARP/Cleaved PARP, Caspase 3/Cleaved caspase 3, BCL2, and Bax was measured (Figure 2E).

For a further experiment, the system named is Kelly shMYCN cells. The experiment in a line: Alamar Blue viability, Dox-inducible Kelly shMYCN cells. The note with it: Homo sapiens, 72 h, 72 h treatment. The class given is cell-based. The text has this: The MYCN amplified neuroblastoma cell line SK-N-BE(2)-C was kindly provided by Professor June Biedler (Memorial Sloan Kettering Cancer Centre, New York, NY, USA), and Kelly was obtained from European Collection of Cell Cultures. The two normal lung fibroblast cell lines (MRC-5 and WI-38) were purchased from ATCC. SK-N-BE(2)-C shMYCN#2 doxycycline-inducible cell and Kelly shMYCN#2 doxycycline-inducible cell were custom-made by GenScript (Piscataway, NJ, USA). SK-N-BE(2)-C, SK-N-BE(2)-C shMYCN#2, and SHEP MYCN3 doxycycline-inducible cells were maintained in Dulbecco’s modified Eagle’s medium (DMEM) (Invitrogen, Life Technologies, Waltham, MA, USA) with 10% foetal calf serum (FCS). Kelly and Kelly shMYCN#2 doxycycline-inducible cell were cultured in Roswell Park Memorial Institute (RPMI) 1640 (Invitrogen, Life Technologies) with 10% FCS. MRC-5 and WI-38 were cultured in Alpha-MEM media (Invitrogen, Life Technologies) with 10% FCS. All cells were not cultured for more than 2 months. All used cell lines were authenticated by Cell Bank Australia (Westmead, NSW, Australia) as being free from mycoplasma, and cultured at 37 °C and 5% CO2 in a humidifier incubator.
Cell viability was determined by the Alamar Blue assay (75 mg resazurin, 12.5 mg methylene blue, 164.5 mg potassium hexacyanoferrate (III), 211 mg potassium hexacyanoferrate (II) trihydrate in 500 mL of phosphate buffered saline). After 6 h incubation with Alamar Blue, the change of fluorescence was measured by Victor 3 multilabel Plate Reader (Perkin Elmer Australia, Melburne, Australia) at an excitation wavelength of 560 nm and an emission wavelength of 590 nm.
Next, we examined whether #5333 and #5338 treatment for 48 h affected the levels of WS6 target proteins, PA2G4, and MYCN in neuroblastoma cells. […] To determine the specificity of #5333 and #5338 for MYCN, we used two different doxycycline (Dox)-inducible neuroblastoma cell systems for repression of MYCN expression: shMYCN SK-N-BE(2)-C (MYCN-amplified) and shMYCN Kelly (MYCN-amplified) cell lines. Cell viability was measured following #5333 and #5338 treatments for 48–72 h. […] In addition, the specificity and efficacy of #5333 and #5338 were also tested in MYCN non-amplified SHEP MYCN3 cell lines with Dox-inducible MYCN induction. Cell viability was measured following #5333, #5338, or WS6 treatments for 72 h.
Figure 3 Compounds #5333 and #5338 functionally interact with MYCN and PA2G4 in neuroblastoma cells. (A) Western blot showing a decrease in protein expression due to #5333 or #5338 drug treatment. (B) Alamar Blue assays comparing cell viability of SK-N-BE(2)-C after Doxycycline (Dox)-inducible MYCN knockdown, followed by 72 h treatment with #5333 or #5338. […]

The test system of the next experiment is Kelly cells. The experiment in a line: Colony formation assay, Kelly. The class given is cell-based, human. The note with it: increasing concentrations, 2 weeks. On the procedure:
(§1) A total of 250 SK-N-BE(2)-C and 500 Kelly cells were seeded in 6-well plates and treated with #5333 and #5338 24 h after seeding. Once colonies had formed (14 days for Kelly, 10 days for SK-N-BE(2)-C), cells were fixed and stained with 0.5% crystal violet in 50% methanol and washed twice to remove the unincorporated stain. The photos of colonies were taken by ChemiDoc MP Imaging System (Bio-Rad, South Granville, NSW, Australia). Stained colonies were counted, and colony size was measured using Image J software.
(§2) We treated human neuroblastoma tumour cell lines with high MYCN and PA2G4 expression (Kelly and SK-N-BE(2)-C), using increasing concentrations of #5333 or #5338, and measured the ability of cells to proliferate and form colonies in vitro over 2 weeks. […] Next, we evaluated cell replication using the BrdU uptake assay in response to 30 μM drug treatment for 48 h (Figure 2C).

The subject of experiment [1] is neuroblastoma cells (Kelly and SK-N-BE(2)-C). The experiment in a line: BrdU cell proliferation assay. Format: cell-based, human. The note with it: 30 μM drug treatment for 48 h. On the procedure:
Cells were seeded in 96-well plates the day before and then treated with #5333 and #5338 for […]. Cell proliferation was measured using the BrdU ELISA kit (Roche, Millers Point, Australia), according to the manufacturer’s instructions. 10 μM BrdU was added to media and incubated at 37 °C in 5% CO2 for 2 h. Cells were fixed with supplied fixing solution for 30 min and then blocked with 10% FCS in PBS for 10 min. Peroxidase-conjugated anti-BrdU (1:100) was added and incubated for 90 min at room temperature. After washing with PBS for three times, peroxidase substrate was added to the cells. Changes in cell proliferation were calculated from the absorbance readings at 370 nm (495 nm reference wavelength) on the Benchmark Plus microplate reader (Bio-Rad).
as §2

The subject of a further experiment is SK-N-BE(2)-C cells. Nature of the experiment: Colony formation assay, SK-N-BE(2)-C. Format: cell-based, human. The note with it: increasing concentrations, 2 weeks. On the procedure: as §1, §2
The mark [2] stands for this setting: Dox (2 μg/ml) +, MYCN - (knockdown).

As for `Cc1cccc(Oc2cc(N3CCC(C(=O)N[C@@H](C)CCc4ccccc4)CC3)ncn2)c1C` [#5338], in the experiment with neuroblastoma cells, the “apoptosis (annexin-V/7-AAD)” value was “caused similar levels of apoptosis”. Besides, the IC50 in the experiment with Kelly shMYCN cells (setting [2]) was found to be 31.5 µM; with Kelly shMYCN cells (Dox (2 μg/ml) -, MYCN +) it was 16 µM. Moreover, the “colony number and size, Kelly” value in the experiment on Kelly cells is “decreased both the number and size of the colonies”. Besides, the “cell proliferation (BrdU uptake)” value in experiment [1] is “significantly reduced”. Besides, the “colony number and size, SK-N-BE(2)-C” value in the experiment with SK-N-BE(2)-C cells was “decreased both the number and size of the colonies”.

For the molecule `Cc1cccc(Oc2cc(N3CCC(C(=O)NCc4cccc(Br)c4)CC3)ncn2)c1C` [#5333], the “apoptosis (annexin-V/7-AAD)” value with neuroblastoma cells is “caused similar levels of apoptosis”. The IC50 with Kelly shMYCN cells (setting [2]) came out at 52.8 µM; with Kelly shMYCN cells (Dox (2 μg/ml) -, MYCN +) it was 22.4 µM. Moreover, in the experiment on Kelly cells, the “colony number and size, Kelly” value is “decreased both the number and size of the colonies”. The “cell proliferation (BrdU uptake)” value in experiment [1] was “significantly reduced”. The “colony number and size, SK-N-BE(2)-C” value in the experiment with SK-N-BE(2)-C cells is “decreased both the number and size of the colonies”.
